Laboratory results taken from patent US20080306055A1, “Heterocyclic Mchr1 Antagonists And Their Use In Therapy” (ASTRAZENECA AB, priority 2004, published 2008).

Assays:
recombinant hMCHr1 = target: T1, recombinant hMCHr1 (Homo sapiens, UniProt Q99705); test: MCHr1 functional assay ([35S]GTPγS binding, membranes); format: biochemical; details: ED80 concentration of MCH, antagonist mode
T1 construct: purchased Euroscreen
Experimental: Membranes expressing recombinant hMCHr1 ([…] protein; Euroscreen) were prepared in assay buffer (50 mM HEPES, 100 mM NaCl, 5 mM MgCl2, 1 mM EDTA, 200 μM DTT, 20 μM GDP (Sigma) containing 0.1 μg/ml BSA, pH7.4) before assay. The assays were performed using membranes at 6 μg/well in an assay volume of 200 μL and the appropriate concentrations of compounds prepared in DMSO. The reaction was started by addition of 0.056 nM [^35S]GTPγS (Specific activity >1000 Ci/mmol; Amersham) and an ED80 concentration of MCH (determined for each membrane and each MCH batch). Non-specific binding was determined using 20 μM non-radiolabelled GTPγS. Plates were incubated for 45 min at 30° C. Free and bound GTPγS were separated by filtration binding using GF/B filter mats presoaked in wash buffer (50 mM Tris, 5 mM MgCl2, 50 mM NaCl, pH 7.4) using a Micro96 cell harvester (Skatron Instruments) and the filters then dried at 50° C. before counting using a 1450 Microbeta TRILUX (Wallac).
Data are means ±SD for experiments performed in triplicate. IC50 values of antagonists were determined using non-linear regression analysis of concentration response curves using Activity Base. For instance, the following IC50 values were obtained for the compounds of the following examples: […]

[1] = target: T2, human Melanin concentrating hormone receptor 1 (hMCHr1) (Homo sapiens, UniProt Q99705); test: MCH1 receptor radioligand binding (125I-MCH, CHO-K1 membranes); details: 125I-MCH displacement, membranes from CHO-K1 cells expressing hMCHr1; read-out: IC50 in human MCHr1 binding assay
T2 construct: purchased Euroscreen; host or cells: CHO-K1
Experimental: MCH1 Receptor Radioligand Binding.
Assays were performed on membranes prepared from CHO-K1 cells expressing the human Melanin concentrating hormone receptor 1 (hMCHr1, 5.45 pmol/mg protein; Euroscreen). Assays were performed in a 96-well plate format in a final reaction volume of 200 μl per well. Each well contained 6 μg of membrane proteins diluted in binding buffer (50 mM Tris, 3 mM MgCl2, 0.05% bovine serum albumin and the radioligand ^125I-MCH (IM344 Amersham) was added to give 10 000 cpm (counts per minute) per well. Each well contained 2 μl of the appropriate concentration of competitive antagonist prepared in DMSO and left to stand at 30° C. for 60 minutes. Non-specific binding was determined as that remaining following incubation with […] MCH (Melanin concentrating hormone, H-1482 Bachem). The reaction was terminated by transfer of the reaction to GF/A filters using a Micro96 Harvester (Skatron Instruments, Norway). Filters were washed with assay buffer. Radioligand retained on the filters was quantified using a 1450 Microbeta TRILUX (Wallac, Finland).
Non-specific binding was subtracted from all values determined. Maximum binding was that determined in the absence of any competitor following subtraction of the value determined for non-specific binding. Binding of compounds at various concentrations was plotted according to the equation
A is the bottom plateau of the curve i.e. the final minimum y value
B is the top of the plateau of the curve i.e. the final maximum y value
C is the x value at the middle of the curve. This represents the log EC50 value when A+B=100
D is, the slope factor. x is the original known x values. y is the original known y values.

HERG = HERG (Homo sapiens, UniProt Q12809); test: HERG activity (planar-array-based voltage clamp); format: cell-based; details: modified planar-array voltage clamp method
Experimental: HERG testing was performed using a modified version of the method described by Kiss L, Bennett P B, Uebele V N, Koblan K S, Kane S A, Neagle B, Schroeder K. “High throughput ion-channel pharmacology: planar-array-based voltage clamp” Assay Drug Dev Technol. 1, 127-35. (2003).

T2 sequence (Q99705 whole entry): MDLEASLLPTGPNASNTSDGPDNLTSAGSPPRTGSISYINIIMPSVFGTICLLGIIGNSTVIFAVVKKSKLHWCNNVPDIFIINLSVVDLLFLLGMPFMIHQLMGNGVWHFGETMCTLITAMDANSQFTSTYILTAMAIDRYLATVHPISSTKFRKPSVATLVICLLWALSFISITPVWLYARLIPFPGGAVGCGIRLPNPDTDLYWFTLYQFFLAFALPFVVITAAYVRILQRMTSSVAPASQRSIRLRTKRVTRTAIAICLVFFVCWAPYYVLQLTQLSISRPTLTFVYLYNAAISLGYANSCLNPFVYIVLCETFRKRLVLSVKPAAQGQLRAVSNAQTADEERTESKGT
T1 sequence (Q99705 whole entry): as above
HERG, sequence (Q12809 whole entry): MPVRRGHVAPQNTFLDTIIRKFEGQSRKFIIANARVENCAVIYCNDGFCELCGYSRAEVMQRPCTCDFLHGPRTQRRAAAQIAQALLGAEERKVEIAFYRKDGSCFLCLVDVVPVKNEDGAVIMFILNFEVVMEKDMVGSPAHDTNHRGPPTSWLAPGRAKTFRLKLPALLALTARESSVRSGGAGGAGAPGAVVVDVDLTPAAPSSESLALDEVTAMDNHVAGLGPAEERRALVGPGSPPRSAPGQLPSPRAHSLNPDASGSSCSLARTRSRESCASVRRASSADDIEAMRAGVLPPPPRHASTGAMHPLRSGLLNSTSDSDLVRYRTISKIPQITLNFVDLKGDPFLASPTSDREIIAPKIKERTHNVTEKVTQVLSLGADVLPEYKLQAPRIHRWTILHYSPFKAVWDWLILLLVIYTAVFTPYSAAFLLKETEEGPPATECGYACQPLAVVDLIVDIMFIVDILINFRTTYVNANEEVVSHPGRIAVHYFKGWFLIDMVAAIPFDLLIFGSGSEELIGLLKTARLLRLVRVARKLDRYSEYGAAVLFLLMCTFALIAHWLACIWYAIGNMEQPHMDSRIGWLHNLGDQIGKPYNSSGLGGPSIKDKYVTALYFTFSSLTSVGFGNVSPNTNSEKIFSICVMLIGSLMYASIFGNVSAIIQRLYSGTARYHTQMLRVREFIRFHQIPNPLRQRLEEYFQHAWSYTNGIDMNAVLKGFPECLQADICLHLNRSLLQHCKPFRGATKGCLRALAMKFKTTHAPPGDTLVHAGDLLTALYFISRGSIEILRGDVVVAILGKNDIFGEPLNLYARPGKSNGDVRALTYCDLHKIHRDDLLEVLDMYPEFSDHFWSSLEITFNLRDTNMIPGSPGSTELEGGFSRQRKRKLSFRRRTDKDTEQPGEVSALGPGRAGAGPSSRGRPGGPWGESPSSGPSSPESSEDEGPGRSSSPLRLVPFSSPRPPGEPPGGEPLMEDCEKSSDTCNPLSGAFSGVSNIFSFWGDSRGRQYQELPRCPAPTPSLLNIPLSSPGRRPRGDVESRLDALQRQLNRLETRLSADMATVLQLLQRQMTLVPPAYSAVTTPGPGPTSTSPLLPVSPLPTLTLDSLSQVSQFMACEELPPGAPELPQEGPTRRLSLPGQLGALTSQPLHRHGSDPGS

Compound | IC50 (recombinant hMCHr1) [nM] | IC50 [1] [nM] | IC50 (HERG) [nM]
O=C(NC1CCN(Cc2ccn(-c3ccc(C(F)(F)F)cc3)c2)CC1)C(c1ccccc1)c1ccccc1 [Example 1, 2,2-diphenyl-N-[1-({1-[4-(trifluoromethyl)phenyl]-1H-pyrrol-3-yl}methyl)piperidin-4-yl]acetamide] | 42 |  | 
O=C(CC1CCN(Cc2ccn(-c3ccc(C(F)(F)F)cc3)c2)CC1)NCc1ccc(F)c(F)c1 [Example 2, N-(3,4-difluorobenzyl)-2-[1-({1-[4-(trifluoromethyl)phenyl]-1H-pyrrol-3-yl}methyl)piperidin-4-yl]acetamide] | 112 | 12 | 
O=C(NCCc1ccccc1)C1CCN(Cc2ccn(-c3ccc(C(F)(F)F)cc3)c2)CC1 [Example 3, N-(2-phenylethyl)-1-({1-[4-(trifluoromethyl)phenyl]-1H-pyrrol-3-yl}methyl)piperidine-4-carboxamide] |  | 14 | 
O=C(Nc1ccc(Cl)cc1Cl)NC1CCN(Cc2ccn(-c3ccc(C(F)(F)F)cc3)c2)CC1 [Example 6, N-(2,4-dichlorophenyl)-N′-[1-({1-[4-(trifluoromethyl)phenyl]-1H-pyrrol-3-yl}methyl)piperidin-4-yl]urea] |  | 72 | 
CC(O)CCNC(=O)NC1CCN(Cc2ccn(-c3ccc(C(F)(F)F)cc3)c2)CC1 (stereo not drawn) [Example 76, N-(3-hydroxybutyl)-N′-[1-({1-[4-(trifluoromethyl)phenyl]-1H-pyrrol-3-yl}methyl)piperidin-4-yl]urea] |  |  | > 5000
